# Calls of active or inactive are those of the source. No cut-off for these calls is given here.
# How the values were obtained:
# [1] = tested on: Human immunodeficiency virus 1; assay: Antiviral activity against HIV1 NL4-3 infected in human CEM-GXR cells assessed as inhibition of viral replication at 1.25 to 10 uM measured after 3 days by Flowcytometry assay; type: functional, organism-based; settings: dose 1.25-10 µM, time 3.0 day
# [2] = Cytotoxicity against human CEM-GXR cells infected with HIV1 NL4-3 assessed as cell viability at 1.25 to 10 uM measured after 3 days by Flowcytometry assay; type: cell-based; settings: 72 h, dose 1.25-10 µM, time 3 day
# [3] = tested on: Human immunodeficiency virus 1; assay: Antiviral activity against HIV1 NL4-3 infected in human CEM-GXR cells assessed as inhibition of viral replication measured after 3 days by Flowcytometry assay; type: functional, organism-based; settings: Human immunodeficiency virus 1, NL4-3, CEM-GXR, 72 h
# [4] = Cytotoxicity against human CEM-GXR cells infected with HIV1 NL4-3 assessed as cell viability measured after 3 days by Flowcytometry assay; type: cell-based; settings: 72 h
# [5] = tested on: Human immunodeficiency virus; assay: Antiviral activity against HIV; type: functional, organism-based; settings: Human immunodeficiency virus 1
# [6] = Cytotoxicity against human CEM-GXR cells infected with HIV1 NL4-3 assessed as cell viability at 10 uM measured after 72 hrs by Flowcytometry assay; type: cell-based
# [7] = tested on: Human immunodeficiency virus 1; assay: Antiviral activity against wild type HIV1 NL4-3 infected in human CEM-GXR cells assessed as inhibition of viral replication measured after 3 days by Flowcytometry assay; type: functional, organism-based; settings: Human immunodeficiency virus 1, NL4-3, CEM-GXR, 72 h
# [8] = tested on: Human immunodeficiency virus 1; assay: Antiviral activity against wild type HIV1 97USSN54 infected in human CEM-GXR cells assessed as inhibition of viral replication measured after 3 days by Flowcytometry assay; type: functional, organism-based; settings: Human immunodeficiency virus 1, 97USSN54, CEM-GXR, 72 h
# [9] = tested on: Human immunodeficiency virus 1; assay: Antiviral activity against antiretroviral-resistant HIV1 443 harboring reverse transcriptase K103N/D67N/K70R/Y115F/Q151M/M184V/K219Q mutant infected in human CEM-GXR cells assessed as inhibition of viral replication measured after 3 days by Flowcytometry assay; type: functional, organism-based; settings: Human immunodeficiency virus 1, 443, CEM-GXR, 72 h
# [10] = tested on: Human immunodeficiency virus 1; assay: Antiviral activity against antiretroviral-resistant HIV1 2948 harboring protease G48V/L90M mutant infected in human CEM-GXR cells assessed as inhibition of viral replication measured after 3 days by Flowcytometry assay; type: functional, organism-based; settings: Human immunodeficiency virus 1, 2948, CEM-GXR, 72 h
# [11] = tested on: Human immunodeficiency virus 1; assay: Antiviral activity against antiretroviral-resistant HIV1 11845 harboring integrase G140S/Q148H mutant infected in human CEM-GXR cells assessed as inhibition of viral replication measured after 3 days by Flowcytometry assay; type: functional, organism-based; settings: Human immunodeficiency virus 1, 11845, CEM-GXR, 72 h
# [12] = tested on: Human immunodeficiency virus 1; assay: Antiviral activity against antiretroviral-resistant HIV1 MVC-res harboring envelope V3 loop A19T/L20F/T22A/E25D/I26V mutant infected in human CEM-GXR cells assessed as inhibition of viral replication measured after 3 days by Flowcytometry assay; type: functional, organism-based
# [13] = Cytotoxicity against human CEM-GXR cells infected with wild type HIV1 NL4-3 assessed as cell viability measured after 72 hrs by Flow cytometry assay; type: cell-based
# [14] = Cytotoxicity against human CEM-GXR cells infected with wild type HIV1 97USSN54 assessed as cell viability measured after 72 hrs by Flow cytometry assay; type: cell-based
# [15] = Cytotoxicity against human CEM-GXR cells infected with wild type HIV1 443 harboring reverse transcriptase K103N/D67N/K70R/Y115F/Q151M/M184V/K219Q mutant assessed as cell viability measured after 72 hrs by Flow cytometry assay; type: cell-based
# [16] = Cytotoxicity against human CEM-GXR cells infected with wild type HIV1 2948 harboring protease G48V/L90M mutant assessed as cell viability measured after 72 hrs by Flow cytometry assay; type: cell-based
# [17] = Cytotoxicity against human CEM-GXR cells infected with wild type HIV1 11845 harboring […] G140S/Q148H mutant assessed as cell viability measured after 72 hrs by Flow cytometry assay; type: cell-based
# [18] = Cytotoxicity against human CEM-GXR cells infected with wild type HIV1 MVC-res harboring envelope V3 loop A19T/L20F/T22A/E25D/I26V mutant assessed as cell viability measured after 72 hrs by Flow cytometry assay; type: cell-based
# [19] = Therapeutic index, ratio of CC50 for human CEM-GXR cells infected with wild type HIV1 NL4-3 to EC50 for wild type HIV1 NL4-3 infected in human CEM-GXR cells; type: toxicity, cell-based; settings: read-out: TI
# [20] = Therapeutic index, ratio of CC50 for human CEM-GXR cells infected with wild type HIV1 97USSN54 to EC50 for wild type HIV1 97USSN54 infected in human CEM-GXR cells; type: toxicity, cell-based; settings: read-out: TI
# [21] = Therapeutic index, ratio of CC50 for human CEM-GXR cells infected with HIV1 443 harboring reverse transcriptase K103N/D67N/K70R/Y115F/Q151M/M184V/K219Q mutant to EC50 for HIV1 443 harboring reverse transcriptase K103N/D67N/K70R/Y115F/Q151M/M184V/K219Q mutant; type: toxicity; settings: read-out: TI
# [22] = Therapeutic index, ratio of CC50 for human CEM-GXR cells infected HIV1 2948 with harboring protease G48V/L90M mutant to EC50 for HIV1 2948 harboring protease G48V/L90M mutant infected in human CEM-GXR cells; type: toxicity, cell-based; settings: read-out: TI
# [23] = Therapeutic index, ratio of CC50 for human CEM-GXR cells infected with HIV1 11845 harboring integrase G140S/Q148H mutant to EC50 for HIV1 11845 harboring integrase G140S/Q148H mutant infected in human CEM-GXR cells; type: toxicity, cell-based; settings: read-out: TI
# [24] = Therapeutic index, ratio of CC50 for human CEM-GXR cells infected with HIV1 MVC-res harboring envelope V3 loop A19T/L20F/T22A/E25D/I26V mutant to EC50 for HIV1 MVC-res harboring envelope V3 loop A19T/L20F/T22A/E25D/I26V mutant infected in human CEM-GXR cells; type: toxicity, cell-based; settings: read-out: TI
# [25] = Cytotoxicity against human PBMC cells assessed as cell viability measured after 11 days by Viacount assay; type: cell-based; settings: time 11 day
# [26] = tested on: Human immunodeficiency virus 1; assay: Anti-HIV activity against HIV1 Bal infected in human PBMC assessed as inhibition of viral infection measured after 11 days by ELISA method; type: functional, organism-based; settings: Human immunodeficiency virus 1, Bal, 264 h
# [27] = Anti-HIV activity against HIV1 3B infected in human PBMC assessed as inhibition of viral infection measured after 11 days by ELISA method; type: functional, cell-based; settings: Human immunodeficiency virus 1, 3B, 264 h
# [28] = tested on: Human immunodeficiency virus 1; assay: Anti-HIV activity against HIV1 provirus infected in HeLa cells assessed as reduction of GAG production in presence of Doxycycline measured after 24 hrs by GFP flourescence based plate reader method; type: functional, organism-based
# HeLa = assay: Cytotoxicity against human HeLa cells infected with HIV1 assessed as cell viability upto 5 uM measured after 24 hrs by plate reader method; type: cell-based
# [29] = tested on: Human immunodeficiency virus 1; assay: Antiviral activity against HIV1 infected in HeLa cells assessed as decrease of unspliced RNA levels at 1.25 uM measured after 24 hrs by RT-qPCR method; type: functional, organism-based
# [30] = tested on: Human immunodeficiency virus 1; assay: Antiviral activity against HIV1 infected in HeLa cells assessed as decrease of singly spliced RNA levels at 1.25 uM measured after 24 hrs by RT-qPCR method; type: functional, organism-based
# [31] = tested on: Human immunodeficiency virus 1; assay: Antiviral activity against HIV1 infected in HeLa cells assessed as decrease of multiply spliced RNA levels at 1.25 uM measured after 24 hrs by RT-qPCR method; type: functional, organism-based
# [32] = tested on: Human immunodeficiency virus 1; assay: Antiviral activity against HIV1 infected in HeLa cells assessed as decrease of unspliced RNA levels at 5 uM measured after 24 hrs by RT-qPCR method; type: functional, organism-based
# [33] = tested on: Human immunodeficiency virus 1; assay: Antiviral activity against HIV1 infected in HeLa cells assessed as decrease of singly spliced RNA levels at 5 uM measured after 24 hrs by RT-qPCR method; type: functional, organism-based
# [34] = tested on: Human immunodeficiency virus 1; assay: Antiviral activity against HIV1 infected in HeLa cells assessed as decrease of multiply spliced RNA levels at 5 uM measured after 24 hrs by RT-qPCR method; type: functional, organism-based
smiles,measurement,setting,value
O=C(Nc1cccc2ncccc12)c1ccc([N+](=O)[O-])s1,Activity,[1],inactive
O=C(Nc1nc2ccc(Cl)cc2s1)c1ccc([N+](=O)[O-])s1,Activity,[1],Active
same,Activity,[2],Toxic
N#Cc1ccc(C(=O)Nc2nc3c(Cl)cccc3s2)s1,EC50,[3],3000 nM
O=C(Nc1nc2c(Cl)cccc2s1)c1ccc([N+](=O)[O-])s1,Activity,[1],Active
same,EC50,[4],5500 nM
O=C(Nc1nsc2ccc([N+](=O)[O-])cc12)c1ccc([N+](=O)[O-])s1,Activity,[1],inactive
O=C(Nc1cncc2ccccc12)c1ccc([N+](=O)[O-])s1,Activity,[1],inactive
O=C(Nc1nc2c(Cl)cccc2s1)c1cccs1,Activity,[1],inactive
O=[N+]([O-])c1ccc(/C=C/c2ccc3ccccc3n2)s1,EC50,[5],500 nM
O=C(Nc1nc2c(Cl)cccc2s1)c1ccc(C(F)(F)F)s1,EC50,[3],5500 nM
O=C(Nc1cccc2cccnc12)c1ccc([N+](=O)[O-])s1,Activity,[1],inactive
O=C(Nc1cnc2ccccc2c1)c1ccc([N+](=O)[O-])s1,Activity,[1],inactive
O=C(Nc1nc2c(Cl)cccc2s1)c1cnc(C(F)(F)F)s1,Activity,[6],Non-Toxic
same,EC50,[3],1660 nM
same,EC50,[7],1290 nM
same,EC50,[8],960 nM
same,EC50,[9],1160 nM
same,EC50,[10],1170 nM
same,EC50,[11],960 nM
same,EC50,[12],970 nM
same,CC50 at 72 h,[13],95700 nM
same,CC50 at 72 h,[14],95700 nM
same,CC50 at 72 h,[15],95700 nM
same,CC50 at 72 h,[16],95700 nM
same,CC50 at 72 h,[17],95700 nM
same,CC50 at 72 h,[18],95700 nM
same,selectivity ratio,[19],74
same,selectivity ratio,[20],100
same,selectivity ratio,[21],83
same,selectivity ratio,[22],82
same,selectivity ratio,[23],101
same,selectivity ratio,[24],99
same,CC50 at 264 h,[25],9080 nM
same,EC50,[26],240 nM
same,EC50,[27],1930 nM
O=C(Nc1ccc(C(F)(F)F)cc1)c1ccc([N+](=O)[O-])s1,Activity,[28],inactive
O=C(Nc1nc2ccc([N+](=O)[O-])cc2s1)c1ccc([N+](=O)[O-])s1,Activity,[1],Active
same,EC50,[4],2400 nM
O=C(Nc1nc2cc(Br)ccc2s1)c1ccc([N+](=O)[O-])s1,Activity,[1],Active
same,Activity,[2],Toxic
O=C(Nc1nc2ccc(OC(F)(F)F)cc2s1)c1ccc([N+](=O)[O-])s1,Activity,[1],Active
same,Activity,[2],Toxic
Cc1ccc(C(=O)Nc2nc3c(Cl)cccc3s2)s1,Activity,[1],inactive
Nc1nc(=O)n([C@@H]2CS[C@H](CO)O2)cc1F [EMTRICITABINE],EC50,[7],30 nM
same,EC50,[8],30 nM
same,CC50 at 72 h,[13],> 100000 nM
same,CC50 at 72 h,[14],> 100000 nM
same,selectivity ratio,[19],> 2940
same,selectivity ratio,[20],> 3850
same,CC50 at 264 h,[25],> 10000 nM
same,EC50,[26],2.1 nM
same,EC50,[27],5.5 nM
O=C(Nc1nc2ccc(C(F)(F)F)cc2s1)c1ccc([N+](=O)[O-])s1,Activity,[1],Active
same,EC50,[4],500 nM
O=C(Nc1nc2c(Cl)cc(Cl)cc2s1)c1ccc([N+](=O)[O-])s1,Activity,[1],Active
same,Activity,[2],Toxic
O=C(Nc1nc2ccc(C(F)(F)F)cc2s1)c1cnc(C(F)(F)F)s1,EC50,[3],470 nM
same,EC50,[7],250 nM
same,EC50,[8],180 nM
same,EC50,[9],240 nM
same,EC50,[10],230 nM
same,EC50,[11],200 nM
same,EC50,[12],220 nM
same,CC50 at 72 h,[13],12000 nM
same,CC50 at 72 h,[14],12000 nM
same,CC50 at 72 h,[15],12000 nM
same,CC50 at 72 h,[16],12000 nM
same,CC50 at 72 h,[17],12000 nM
same,CC50 at 72 h,[18],12000 nM
same,selectivity ratio,[19],49
same,selectivity ratio,[20],68
same,selectivity ratio,[21],51
same,selectivity ratio,[22],52
same,selectivity ratio,[23],59
same,selectivity ratio,[24],56
same,CC50 at 264 h,[25],2510 nM
same,EC50,[26],250 nM
same,EC50,[27],740 nM
same,Activity,[28],Dose-Dependent Effect
same,Activity,HeLa,Toxic
same,Activity,[29],Active
same,Activity,[30],Active
same,Activity,[31],Active
same,Activity,[32],inactive
same,Activity,[33],inactive
same,Activity,[34],inactive

# Source: ChEMBL document CHEMBL4837270, “2-Trifluoromethylthiazole-5-carboxamides: Analogues of a Stilbene-Based Anti-HIV Agent that Impact HIV mRNA Processing” (ACS Med Chem Lett, 2021)
